Each block holds one molecule with its values, some of them ahead of it.
Key:
[1] = target: T1, Phosphoglycerate mutase 1 (Homo sapiens, UniProt P18669); test: Inhibition of recombinant PGAM1 (unknown origin) assessed as decrease in absorbance in presence of LDH, pyruvate kinase M2 and NADH by spectroscopic analysis
[2] = target: T1, Phosphoglycerate mutase 1; test: Inhibition of His-tagged recombinant PGAM1 (unknown origin) expressed in Escherichia coli BL21 assessed as decrease in absorbance from oxidation of NADH in presence of LDH, pyruvate kinase M1 and NADH by microplate reader assay
[3] = target: T1, Phosphoglycerate mutase 1; test: Inhibition of His6-tagged human PGAM1 expressed in Escherichia coli BL21(DE3)pLysS cells assessed as decrease in autofluorescence from oxidation of NADH in presence of LDH and pyruvate kinase M1 by multiple enzymes coupled assay
KG-1a = test: Antiproliferative activity against human KG-1a cells assessed as decrease in cell viability incubated for 72 hrs by trypan blue exclusion assay; format: functional, cell-based
PANC-1 = test: Antiproliferative activity against human PANC-1 cells assessed as reduction in cell viability incubated for 24 hrs by CCK-8 assay; format: functional, cell-based; details: PANC-1, 24 h
ASPC1 = test: Antiproliferative activity against human ASPC1 cells assessed as reduction in cell viability incubated for 24 hrs by CCK-8 assay; format: functional, cell-based; details: ASPC1, 24 h
MIA PaCa-2 = test: Antiproliferative activity against human MIA PaCa-2 cells assessed as reduction in cell viability incubated for 24 hrs by CCK-8 assay; format: functional, cell-based; details: MIA PaCa-2, 24 h
MDA-MB-231 = test: Antiproliferative activity against human MDA-MB-231 cells assessed as inhibition of cell proliferation incubated for 12 hrs by BrdU incorporation assay; format: functional, cell-based; details: MDA-MB-231, 12 h
[4] = target: T1, Phosphoglycerate mutase 1; test: Inhibition of human PGAM1 in human MDA-MB-231 cells assessed as decrease in PGAM1 activity incubated for 2 hrs by UV/Vis spectrophotometry; format: cell-based
HCC827 [5] = test: Antitumor activity against erlotinib-resistant human HCC827 cells assessed as reduction in cell viability incubated for 72 hrs by CCK-8 assay; format: functional, cell-based; details: HCC827, 72 h
HCC827 [6] = test: Antitumor activity against human HCC827 cells assessed as reduction in cell viability incubated for 72 hrs by CCK-8 assay; format: functional, cell-based; details: HCC827, 72 h
A549 [7] = test: Antitumor activity against human A549 cells assessed as reduction in cell viability incubated for 72 hrs by CCK-8 assay; format: functional, cell-based; details: A549, 72 h
[8] = target: T1, Phosphoglycerate mutase 1; test: Allosteric inhibition of PGAM1 (unknown origin) assessed as decrease in absorbance in presence of LDH, pyruvate kinase M2 and NADH by spectroscopic analysis
NCI-H1299 [9] = test: Antiproliferative activity against human NCI-H1299 cells assessed as decrease in cell viability incubated for 72 hrs by trypan blue exclusion assay; format: functional, cell-based; details: NCI-H1299, 72 h
A549 [10] = test: Antiproliferative activity against human A549 cells assessed as reduction in cell viability incubated for 72 hrs by CCK8 assay; format: functional, cell-based; details: A549, 72 h
PC-9 = test: Antiproliferative activity against human PC-9 cells assessed as reduction in cell viability incubated for 72 hrs by CCK8 assay; format: functional, cell-based; details: PC-9, 72 h
NCI-H1299 [11] = test: Antiproliferative activity against human NCI-H1299 cells assessed as reduction in cell viability incubated for 72 hrs by MTT assay; format: functional, cell-based; details: NCI-H1299, 72 h
A549 [12] = test: Antiproliferative activity against human A549 cells assessed as reduction in cell viability incubated for 72 hrs by MTT assay; format: functional, cell-based; details: A549, 72 h

T1 sequence (P18669 whole entry): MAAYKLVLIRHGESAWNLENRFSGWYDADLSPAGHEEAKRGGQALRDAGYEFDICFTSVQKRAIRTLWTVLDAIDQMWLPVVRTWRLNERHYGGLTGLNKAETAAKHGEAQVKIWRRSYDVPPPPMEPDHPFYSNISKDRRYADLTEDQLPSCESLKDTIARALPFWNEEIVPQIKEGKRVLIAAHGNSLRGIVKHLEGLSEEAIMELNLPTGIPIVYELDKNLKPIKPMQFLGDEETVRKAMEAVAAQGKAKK

SMILES: O=C1c2ccccc2C(=O)c2c1cc(NS(=O)(=O)O)c(O)c2O
IC50 [1]: 5.4 µM

SMILES: [N-]=[N+]=NCCCCC(=O)Oc1ccccc1S(=O)(=O)Nc1cc2c(c(O)c1O)C(=O)c1ccccc1C2=O
IC50 [2]: 1.3 µM

SMILES: CN(C)c1ccc(S(=O)(=O)Nc2cc3c(c(O)c2O)C(=O)c2ccccc2C3=O)cc1
IC50 [1]: 0.77 µM

SMILES: O=C1c2ccccc2C(=O)c2c1ccc(O)c2O [ATHRAQUINONES A]
IC50 [3]: > 20 µM | EC50 (KG-1a): 60.2 µM

SMILES: CC(=O)Oc1ccccc1S(=O)(=O)Nc1cc2c(c(O)c1O)C(=O)c1ccccc1C2=O
IC50 [2]: 1 µM

SMILES: C#CCCCC(=O)OC(C)(C)C1CCCOC(OC(=O)N[C@@H](Cc2c[nH]c3ccccc23)C(=O)OCc2ccccc2)C1 (some centres not stated)
IC50 (MDA-MB-231): 19 µM | EC50 [4]: 33 µM

SMILES: O=C1c2ccccc2C(=O)c2c1cc(S(=O)(=O)Nc1ccc(C(F)(F)F)cc1)c(O)c2O
EC50 (KG-1a): 17.1 µM | EC50 (NCI-H1299 [9]): 25.6 µM | EC50 (A549 [10]): 38.7 µM | EC50 (PC-9): 17.8 µM

Next, values leading:

IC50 [1]: 0.105 µM | EC50 (PANC-1): 0.501 µM | EC50 (ASPC1): 0.51 µM | EC50 (MIA PaCa-2): 0.271 µM
SMILES: O=C1c2ccccc2C(=O)c2c1cc(NS(=O)(=O)c1ccc(N3CCCC3)cc1)c(O)c2O

EC50 (HCC827 [5]): 1.02 µM | EC50 (HCC827 [6]): 1.71 µM | EC50 (A549 [7]): 5.62 µM | IC50 [8]: 0.85 µM
SMILES: O=C1c2ccccc2C(=O)c2c1cc(NS(=O)(=O)c1ccc(N3CCC3)cc1)c(O)c2O

EC50 (NCI-H1299 [11]): 6.9 µM | EC50 (A549 [12]): 12.7 µM
SMILES: O=C1c2ccccc2C(=O)c2c1cc(NS(=O)(=O)c1ccc(Cl)cc1)c(O)c2O

Source: ChEMBL document CHEMBL5247579, “Targeting PGAM1 in cancer: An emerging therapeutic opportunity” (Eur J Med Chem, 2022)
